How the values were obtained:
S. pneumoniae = assay: Antibacterial activity; format: cell-based; conditions: Streptococcus pneumoniae
S. pyogenes = assay: Antibacterial activity; format: cell-based; conditions: Streptococcus pyogenes
Gram-negative bacteria = conditions: general statement, no reference given; cited from earlier work

Question: Which MIC (S. pneumoniae) does the source give for `C=C(NC(=O)C(=C)NC(=O)c1csc(C2=N[C@@H]3c4csc(n4)[C@H]4NC(=O)c5csc(n5)[C@H]([C@](C)(O)[C@@H](C)O)NC(=O)[C@H]5CSC(=N5)/C(=C/C)NC(=O)[C@H]([C@@H](C)O)NC(=O)c5csc(n5)[C@]3(CC2)NC(=O)[C@H](C)NC(=O)C(=C)NC(=O)[C@H](C)NC(=O)[C@H]([C@@H](C)CC)N[C@@H]2C=Cc3c([C@H](C)O)cc(nc3[C@H]2O)C(=O)O[C@@H]4C)n1)C(N)=O` [Compound 1, Thiostrepton] here?
Answer: The MIC was less than 1 ng/mL.

Question: And the MIC (S. pyogenes)?
Answer: Its MIC is less than 1 ng/mL.

Question: And the “activity against Gram-negative bacteria” value (Gram-negative bacteria)?
Answer: The value was “inactive”.

— paper PMC6940514 (Angewandte Chemie (International ed. in English), 2019)
